The source made the active and inactive calls. The calls are words filed in the database; no cut-off is given here.
What was measured:
[1] = target: Ribosomal protein S6 kinase alpha-4 (Homo sapiens) (UniProt O75676); assay: Inhibition of C-terminal RPS6KA4 kinase domain 2 (unknown origin) at 10 uM by Ambit Kinomescan binding assay; values are per cent of control
[2] = target: Calcium/calmodulin-dependent protein kinase type 1 (Homo sapiens) (UniProt Q14012); assay: Inhibition of CAMK1 (unknown origin) at 10 uM by Ambit Kinomescan binding assay relative to control
[3] = target: STE20-like serine/threonine-protein kinase (Homo sapiens) (UniProt Q9H2G2); assay: Inhibition of SLK K2 labeling site harbouring DLKAGNILFTLDGDIK in human Huh-7 cells at 1 uM by KiNativ Profiling analysis relative to control; format: cell-based
[4] = target: T1, NUAK family SNF1-like kinase 2 (Homo sapiens) (UniProt Q9H093); assay: Inhibition of SNARK (unknown origin) at 10 uM by Ambit Kinomescan binding assay
T1 sequence (whole entry): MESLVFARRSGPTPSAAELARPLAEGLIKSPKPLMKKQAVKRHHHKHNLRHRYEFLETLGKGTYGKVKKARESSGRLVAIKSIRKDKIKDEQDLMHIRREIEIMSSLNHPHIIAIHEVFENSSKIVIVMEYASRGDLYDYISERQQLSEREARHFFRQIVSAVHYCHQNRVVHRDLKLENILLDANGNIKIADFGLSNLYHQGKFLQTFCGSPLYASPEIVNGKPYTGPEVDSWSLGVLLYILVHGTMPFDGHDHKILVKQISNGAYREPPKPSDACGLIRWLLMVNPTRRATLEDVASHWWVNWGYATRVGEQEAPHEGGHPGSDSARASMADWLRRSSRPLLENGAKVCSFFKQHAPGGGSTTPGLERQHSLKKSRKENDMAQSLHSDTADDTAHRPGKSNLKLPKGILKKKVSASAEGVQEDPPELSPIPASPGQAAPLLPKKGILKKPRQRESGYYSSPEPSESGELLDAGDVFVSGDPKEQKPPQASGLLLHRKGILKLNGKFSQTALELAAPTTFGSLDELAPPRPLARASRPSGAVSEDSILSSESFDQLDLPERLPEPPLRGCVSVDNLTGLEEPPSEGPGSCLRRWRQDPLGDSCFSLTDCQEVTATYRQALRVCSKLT

[5] = target: Cyclin-dependent kinase-like 2 (Homo sapiens) (UniProt Q92772); assay: Inhibition of CDKL2 (unknown origin) at 10 uM by Ambit Kinomescan binding assay relative to control
[6] = target: Insulin receptor-related protein (Homo sapiens) (UniProt P14616); assay: Inhibition of INSRR (unknown origin) at 10 uM by Ambit Kinomescan binding assay relative to control
[7] = target: Tyrosine-protein kinase ABL (Homo sapiens) (UniProt P00519+P42684); assay: Inhibition of ABL1/2 ACT labeling site in human Huh-7 cells at 1 uM by KiNativ Profiling analysis relative to control; format: cell-based
[8] = target: Serine/threonine-protein kinase MARK2 (Homo sapiens) (UniProt Q7KZI7); assay: Inhibition of MARK2 K1 labeling site harbouring HILTGKEVAVKIIDKTQLNSSSLQK in human Huh-7 cells at 1 uM by KiNativ Profiling analysis relative to control; format: cell-based
[9] = target: TRAF2 and NCK-interacting protein kinase (Homo sapiens) (UniProt Q9UKE5); assay: Inhibition of ZC2/TNIK Lys2 labeling site in human A-375 cells at 5 uM by KiNativ Profiling analysis relative to control; format: cell-based
[10] = target: Serine/threonine-protein kinase DCLK3 (Homo sapiens) (UniProt Q9C098); assay: Inhibition of DCAMKL3 (unknown origin) at 10 uM by Ambit Kinomescan binding assay
[11] = target: Glycogen synthase kinase-3 beta (Homo sapiens) (UniProt P49841); assay: Inhibition of GSK3B (unknown origin) at 1 uM by Ambit Kinomescan binding assay relative to control; values are per cent of control
[12] = target: RAC-alpha serine/threonine-protein kinase (Homo sapiens) (UniProt P31749); assay: Inhibition of AKT1 (unknown origin) at 1 uM by Ambit Kinomescan binding assay relative to control
[13] = target: Serine/threonine-protein kinase TNNI3K (Homo sapiens) (UniProt Q59H18); assay: Inhibition of TNNI3K (unknown origin) at 1 uM by Ambit Kinomescan binding assay relative to control
[14] = target: Receptor tyrosine-protein kinase erbB-2 (Homo sapiens) (UniProt P04626); assay: Inhibition of ERBB2 (unknown origin) at 1 uM by Ambit Kinomescan binding assay relative to control
[15] = target: RAC-gamma serine/threonine-protein kinase (Homo sapiens) (UniProt Q9Y243); assay: Inhibition of AKT3 ATP Loop labeling site in human A-375 cells at 5 uM by KiNativ Profiling analysis relative to control; format: cell-based
[16] = target: Ephrin type-A receptor 2 (Homo sapiens, UniProt P29317); assay: Inhibition of EphA2 ACT labeling site in human A-375 cells at 0.05 uM by KiNativ Profiling analysis relative to control; format: cell-based
[17] = target: Glycogen synthase kinase-3 beta (Homo sapiens) (UniProt P49841); assay: Inhibition of GSK3B Lys2 labeling site in human A-375 cells at 0.5 uM by KiNativ Profiling analysis relative to control; format: cell-based
[18] = target: T2, Interleukin-1 receptor-associated kinase 4 (Homo sapiens) (UniProt Q9NWZ3); assay: Inhibition of IRAK4 Lys2 labeling site in human Huh-7 cells at 1 uM by KiNativ Profiling analysis relative to control; format: cell-based
T2 sequence (whole entry): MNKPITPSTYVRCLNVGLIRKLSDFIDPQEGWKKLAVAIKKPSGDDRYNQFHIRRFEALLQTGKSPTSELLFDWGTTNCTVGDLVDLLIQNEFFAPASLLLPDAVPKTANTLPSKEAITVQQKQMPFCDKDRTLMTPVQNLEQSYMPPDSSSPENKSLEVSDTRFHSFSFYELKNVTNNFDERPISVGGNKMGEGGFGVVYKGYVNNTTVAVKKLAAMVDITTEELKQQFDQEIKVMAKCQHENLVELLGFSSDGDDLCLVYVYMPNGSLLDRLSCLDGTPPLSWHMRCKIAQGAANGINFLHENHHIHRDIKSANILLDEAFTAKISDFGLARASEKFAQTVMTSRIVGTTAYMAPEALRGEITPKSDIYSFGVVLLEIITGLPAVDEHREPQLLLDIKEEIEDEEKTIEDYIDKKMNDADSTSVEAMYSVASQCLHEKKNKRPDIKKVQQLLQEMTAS

[19] = Inhibition of KHS2 Lys1 labeling site in human Huh-7 cells at 1 uM by KiNativ Profiling analysis relative to control; settings: condition cancer
[20] = target: Epidermal growth factor receptor (Homo sapiens) (UniProt P00533); assay: Inhibition of EGFR Lys1 labeling site harbouring IPVAIKELR in human Huh-7 cells at 1 uM by KiNativ Profiling analysis relative to control; format: cell-based
[21] = target: Mitogen-activated protein kinase kinase kinase 11 (Homo sapiens) (UniProt Q16584); assay: Inhibition of MLK3 Lys2 labeling site in human Huh-7 cell lysate at 1 uM by KiNativ Profiling analysis relative to control; format: subcellular
Chain of Mitogen-activated protein kinase kinase kinase 11 (Homo sapiens) (Q16584 whole entry, looked up): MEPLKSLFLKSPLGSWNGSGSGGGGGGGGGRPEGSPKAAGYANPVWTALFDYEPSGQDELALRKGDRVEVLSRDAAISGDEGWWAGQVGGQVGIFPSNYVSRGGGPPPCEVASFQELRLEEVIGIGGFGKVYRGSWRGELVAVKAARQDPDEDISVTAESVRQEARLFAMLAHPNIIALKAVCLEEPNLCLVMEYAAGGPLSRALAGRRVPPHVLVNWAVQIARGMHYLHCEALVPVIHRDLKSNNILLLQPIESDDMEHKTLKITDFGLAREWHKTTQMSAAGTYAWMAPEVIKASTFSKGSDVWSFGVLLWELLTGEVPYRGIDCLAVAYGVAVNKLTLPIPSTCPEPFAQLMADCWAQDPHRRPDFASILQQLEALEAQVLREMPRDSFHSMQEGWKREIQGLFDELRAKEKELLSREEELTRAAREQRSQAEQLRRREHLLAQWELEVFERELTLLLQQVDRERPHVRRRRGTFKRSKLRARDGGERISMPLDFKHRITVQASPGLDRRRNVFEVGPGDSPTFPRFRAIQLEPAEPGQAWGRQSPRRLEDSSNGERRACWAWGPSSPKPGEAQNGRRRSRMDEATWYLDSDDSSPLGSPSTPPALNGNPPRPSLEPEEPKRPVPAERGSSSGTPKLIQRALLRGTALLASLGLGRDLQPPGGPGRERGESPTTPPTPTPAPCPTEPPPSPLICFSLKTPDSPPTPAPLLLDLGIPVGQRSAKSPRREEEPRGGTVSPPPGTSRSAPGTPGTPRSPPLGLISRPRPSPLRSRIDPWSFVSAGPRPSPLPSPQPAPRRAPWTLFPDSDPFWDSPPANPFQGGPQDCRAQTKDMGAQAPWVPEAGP

Chain of Glycogen synthase kinase-3 beta (Homo sapiens) (P49841 whole entry, looked up): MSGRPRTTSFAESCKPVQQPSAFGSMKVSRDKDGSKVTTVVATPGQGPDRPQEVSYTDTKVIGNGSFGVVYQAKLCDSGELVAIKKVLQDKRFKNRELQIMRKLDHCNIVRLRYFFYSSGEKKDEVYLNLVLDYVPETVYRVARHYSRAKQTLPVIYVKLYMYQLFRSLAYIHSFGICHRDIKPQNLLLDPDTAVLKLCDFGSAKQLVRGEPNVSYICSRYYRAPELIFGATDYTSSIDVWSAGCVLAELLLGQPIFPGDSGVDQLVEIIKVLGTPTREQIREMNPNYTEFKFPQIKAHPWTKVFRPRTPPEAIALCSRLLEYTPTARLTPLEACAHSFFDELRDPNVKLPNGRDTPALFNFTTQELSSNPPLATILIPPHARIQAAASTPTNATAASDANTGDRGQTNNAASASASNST
Chain of RAC-gamma serine/threonine-protein kinase (Homo sapiens) (Q9Y243 whole entry): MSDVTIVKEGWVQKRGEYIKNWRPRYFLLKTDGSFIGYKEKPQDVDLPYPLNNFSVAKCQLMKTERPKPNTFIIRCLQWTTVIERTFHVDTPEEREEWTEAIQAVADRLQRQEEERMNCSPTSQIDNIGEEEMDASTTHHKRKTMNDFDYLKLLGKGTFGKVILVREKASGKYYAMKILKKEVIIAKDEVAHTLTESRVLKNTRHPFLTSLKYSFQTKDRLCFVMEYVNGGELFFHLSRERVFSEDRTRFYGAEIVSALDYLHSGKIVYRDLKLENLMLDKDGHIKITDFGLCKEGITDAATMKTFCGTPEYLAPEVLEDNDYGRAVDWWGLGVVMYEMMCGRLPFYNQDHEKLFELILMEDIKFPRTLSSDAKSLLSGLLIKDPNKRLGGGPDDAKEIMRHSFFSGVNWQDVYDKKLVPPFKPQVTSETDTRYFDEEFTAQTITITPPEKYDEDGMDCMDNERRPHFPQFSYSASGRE
Chain of Receptor tyrosine-protein kinase erbB-2 (Homo sapiens) (P04626 whole entry): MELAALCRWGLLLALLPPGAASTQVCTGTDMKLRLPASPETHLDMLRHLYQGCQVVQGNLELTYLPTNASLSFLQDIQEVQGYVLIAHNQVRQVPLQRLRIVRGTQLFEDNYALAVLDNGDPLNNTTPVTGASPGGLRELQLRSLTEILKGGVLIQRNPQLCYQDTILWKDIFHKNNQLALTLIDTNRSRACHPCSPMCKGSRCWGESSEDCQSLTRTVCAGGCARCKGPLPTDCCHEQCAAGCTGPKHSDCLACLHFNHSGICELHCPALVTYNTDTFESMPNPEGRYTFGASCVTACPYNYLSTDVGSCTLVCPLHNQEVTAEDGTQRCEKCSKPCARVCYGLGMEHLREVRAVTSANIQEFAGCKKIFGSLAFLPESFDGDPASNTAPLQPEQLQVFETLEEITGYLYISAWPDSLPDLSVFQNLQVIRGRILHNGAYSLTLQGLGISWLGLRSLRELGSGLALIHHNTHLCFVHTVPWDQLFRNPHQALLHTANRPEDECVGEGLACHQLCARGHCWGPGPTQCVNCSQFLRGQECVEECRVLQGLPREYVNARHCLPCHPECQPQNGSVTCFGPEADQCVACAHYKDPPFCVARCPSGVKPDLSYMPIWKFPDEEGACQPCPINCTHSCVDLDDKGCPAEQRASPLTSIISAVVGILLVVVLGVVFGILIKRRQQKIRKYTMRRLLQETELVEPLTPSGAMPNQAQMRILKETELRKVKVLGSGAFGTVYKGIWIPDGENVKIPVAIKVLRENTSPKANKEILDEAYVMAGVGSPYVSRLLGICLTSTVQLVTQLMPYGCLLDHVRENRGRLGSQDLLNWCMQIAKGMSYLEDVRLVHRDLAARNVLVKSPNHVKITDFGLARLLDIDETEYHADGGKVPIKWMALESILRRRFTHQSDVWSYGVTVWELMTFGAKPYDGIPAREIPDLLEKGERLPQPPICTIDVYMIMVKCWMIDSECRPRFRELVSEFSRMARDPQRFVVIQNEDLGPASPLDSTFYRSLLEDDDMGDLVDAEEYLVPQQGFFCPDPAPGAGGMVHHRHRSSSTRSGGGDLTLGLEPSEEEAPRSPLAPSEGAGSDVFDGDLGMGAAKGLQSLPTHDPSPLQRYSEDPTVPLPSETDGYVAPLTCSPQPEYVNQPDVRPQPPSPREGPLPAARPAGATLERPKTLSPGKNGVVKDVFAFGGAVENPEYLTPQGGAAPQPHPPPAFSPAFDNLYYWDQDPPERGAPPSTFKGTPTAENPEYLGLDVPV
Chain of Serine/threonine-protein kinase MARK2 (Homo sapiens) (Q7KZI7 whole entry): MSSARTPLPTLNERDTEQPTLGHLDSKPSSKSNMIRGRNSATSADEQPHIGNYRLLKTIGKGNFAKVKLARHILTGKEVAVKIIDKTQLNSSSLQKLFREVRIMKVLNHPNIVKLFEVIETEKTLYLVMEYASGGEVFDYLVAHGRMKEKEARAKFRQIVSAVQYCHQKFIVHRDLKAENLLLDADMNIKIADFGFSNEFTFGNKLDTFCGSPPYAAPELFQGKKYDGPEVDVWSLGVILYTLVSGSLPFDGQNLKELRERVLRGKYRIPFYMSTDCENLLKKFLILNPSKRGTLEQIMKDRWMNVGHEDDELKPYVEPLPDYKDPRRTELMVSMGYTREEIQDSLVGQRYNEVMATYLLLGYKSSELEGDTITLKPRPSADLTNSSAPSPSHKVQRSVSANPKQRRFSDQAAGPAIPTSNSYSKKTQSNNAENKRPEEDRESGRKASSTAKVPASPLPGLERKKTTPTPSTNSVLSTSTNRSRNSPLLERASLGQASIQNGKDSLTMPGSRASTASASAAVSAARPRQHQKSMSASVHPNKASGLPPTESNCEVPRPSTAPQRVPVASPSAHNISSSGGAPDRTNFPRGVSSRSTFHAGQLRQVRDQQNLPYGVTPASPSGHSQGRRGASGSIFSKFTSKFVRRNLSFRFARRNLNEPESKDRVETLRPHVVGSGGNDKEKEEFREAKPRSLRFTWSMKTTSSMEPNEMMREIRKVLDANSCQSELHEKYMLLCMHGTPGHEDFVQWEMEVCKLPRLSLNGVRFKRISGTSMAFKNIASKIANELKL
Chain of RAC-alpha serine/threonine-protein kinase (Homo sapiens) (P31749 whole entry): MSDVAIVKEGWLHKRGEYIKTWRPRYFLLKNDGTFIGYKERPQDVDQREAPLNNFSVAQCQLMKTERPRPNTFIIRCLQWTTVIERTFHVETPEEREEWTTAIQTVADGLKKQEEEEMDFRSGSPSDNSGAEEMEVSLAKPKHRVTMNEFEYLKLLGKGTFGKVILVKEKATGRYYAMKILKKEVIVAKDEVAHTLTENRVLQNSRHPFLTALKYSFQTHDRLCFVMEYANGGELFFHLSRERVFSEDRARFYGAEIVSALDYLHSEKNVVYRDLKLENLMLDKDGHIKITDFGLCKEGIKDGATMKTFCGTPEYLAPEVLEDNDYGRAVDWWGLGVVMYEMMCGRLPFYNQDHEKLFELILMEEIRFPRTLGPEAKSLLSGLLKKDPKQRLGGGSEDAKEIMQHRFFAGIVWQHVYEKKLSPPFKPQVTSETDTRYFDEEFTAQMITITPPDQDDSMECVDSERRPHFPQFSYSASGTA
Chain of Cyclin-dependent kinase-like 2 (Homo sapiens) (Q92772 whole entry): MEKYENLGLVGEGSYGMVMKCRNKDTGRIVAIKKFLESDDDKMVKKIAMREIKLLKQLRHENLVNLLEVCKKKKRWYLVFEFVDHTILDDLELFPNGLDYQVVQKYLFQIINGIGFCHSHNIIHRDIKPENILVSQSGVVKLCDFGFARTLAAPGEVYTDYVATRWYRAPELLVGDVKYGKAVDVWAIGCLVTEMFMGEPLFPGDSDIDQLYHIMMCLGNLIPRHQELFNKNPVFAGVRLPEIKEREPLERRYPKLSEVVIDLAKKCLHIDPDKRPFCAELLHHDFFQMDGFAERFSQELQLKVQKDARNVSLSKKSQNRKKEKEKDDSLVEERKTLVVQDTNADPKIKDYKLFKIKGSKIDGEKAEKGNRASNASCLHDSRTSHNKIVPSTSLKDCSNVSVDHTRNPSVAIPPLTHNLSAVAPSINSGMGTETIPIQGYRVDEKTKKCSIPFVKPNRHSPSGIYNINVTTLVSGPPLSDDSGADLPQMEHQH

CCN1CCN(Cc2ccc(NC(=O)c3ccc(C)c(Oc4ccnc5[nH]ccc45)c3)cc2C(F)(F)F)CC1
percent of control [1]: 4.7%
inhibition [2]: 0%
inhibition [3]: 66.5%
inhibition [4]: inactive
inhibition [5]: 0.9%
inhibition [6]: 23%
inhibition [7]: 44.3%
inhibition [8]: inactive
inhibition [9]: 92.7%
inhibition [10]: inactive

CCN1CCN(Cc2ccc(NC(=O)c3ccc(C)c(/C=C/c4cnc5[nH]ccc5c4OC)c3)cc2C(F)(F)F)CC1
residual activity [11]: 100%
inhibition [12]: 100%
inhibition [13]: 5.9%
inhibition [14]: 19%
inhibition [15]: 13.3%
inhibition [16]: 83.7%
inhibition [17]: 34.9%

CNc1cc(Oc2cc(C(=O)Nc3cc(N4CCN(C)CC4)cc(C(F)(F)F)c3)ccc2C)ncn1
inhibition [18]: 0.4%
inhibition at 1 µM [19]: 5.3%
inhibition [20]: 7.2%
inhibition [21]: 3.4%

— ChEMBL document CHEMBL5696442, “Discovery of type II inhibitors of TGFβ-activated kinase 1 (TAK1) and mitogen-activated protein kinase kinase kinase kinase 2 (MAP4K2)” (J Med Chem, 2015)
